From patent US20110009343A1, “MODULATORS OF AMYLOID AGGREGATION” (Praecis Pharmaceuticals, Inc., priority 1995, published 2011)
Numbered stars: 1 amine (or outer) side, 2 acyl side, 3 side chain; on linkers, the order of the positions; unused ones are H or OH. Square brackets hold non-standard residues; d marks the D form. Peptide text beside a SMILES is read from it. * marks the point of attachment. Cholyl = C[C@H](CCC(=O)*)[C@H]1CC[C@H]2[C@@H]3[C@H](O)C[C@@H]4C[C@H](O)CC[C@]4(C)[C@H]3C[C@H](O)[C@]12C; X2 = O=C(C1(O)C[C@H](O)[C@@H](N[*:1])[C@H]([C@H](O)[C@H](O)CO)O1)[*:2]; X3 = N=C1N[C@H]2[C@H](CS[C@H]2CCCCC(=O)*)N1

Target: T1, Aβ1-40 (Homo sapiens, UniProt P05067)
T1 construct: (β-AP1-40) was obtained commercially from Bachem (Torrance, Calif.); purchased Bachem (Torrance, Calif.)
Assay: Nucleation assay (turbidity, A405 nm);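 note: synthetic Aβ monomer polymerization followed by turbidity in 96-well plates with continuous shaking, read every 15 minutes over 5 hours, compared against wells lacking test compound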
Format: biochemical
Conditions: for inhibition at 100 mol %: 100 mole % inhibitor, read-out: % Inucl'n (percent reduction in maximum observed turbidity)

[1] = Table II, 100 mole % vs 50 μM Aβ1-40

T1 sequence (P05067 672-711): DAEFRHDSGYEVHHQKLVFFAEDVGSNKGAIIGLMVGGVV
From the text: The nucleation assay is employed to determine the ability of test compounds to alter (e.g. inhibit) the early events in formation of β-AP fibers from monomeric β-AP. […] The time delay before polymerization of β-AP monomer can be quantified as well as the extent of formation of insoluble fiber by light scattering (turbidity). Polymerization reaches equilibrium when the maximum turbidity reaches a plateau. The turbidity of a solution of natural β-AP in the absence or presence of various concentrations of a β-amyloid modulator compound is determined by measuring the apparent absorbance of the solution at 405 nm (A405 nm) over time. The threshold of sensitivity for the measurement of turbidity is in the range of 15-20 μM β-AP. […] This assay can be performed using stirring or shaking to accelerate polymerization, thereby increasing the speed of the assay. Moreover the assay can be adapted to a 96-well plate format to screen multiple compounds.
HFIP-solubilized peptide is sonicated in a waterbath sonicator for 5 mM at highest setting, then evaporated to dryness under a stream of argon. The peptide film is resuspended in anhydrous dimethylsulfoxide (DMSO) at a concentration of 6.9 mg/ml (25× concentration), sonicated for 5 mM as before, then filtered through a 0.2 micron nylon syringe filter (VWR cat. No. 28196-050). Test compounds are dissolved in DMSO at a 100× concentration. […] Ten microliters of the mixture is then added to the bottom of a well of a Corning Costar ultra low binding 96-well plate (Corning Costar, Cambridge Mass.; cat. No. 2500). Ninety microliters of water is added to the well, the plate is shaken on a rotary shaken at a constant speed at room temperature for 30 seconds, an additional 100 μl of 2×PTL buffer (20 mM NaH2PO4, 300 mM NaCl, pH 7.4) is added to the well, the plate is reshaken for 30 seconds and a baseline (t=0) turbidity reading is taken by measuring the apparent absorbance at 405 nm using a Bio-Rad Model 450 Microplate Reader. The plate is then returned to the shaker and shaken continuously for 5 hours. Turbidity readings are taken at 15 minute intervals.
β-amyloid aggregation in the absence of any modulators results in enhanced turbidity of the natural β-AP solution (i.e., an increase in the apparent absorbance at 405 nm over time).
Accordingly a fold increase in lag time of 1.0 indicates no change in lag time, whereas numbers >1.0 indicate an increase in lag time. The “% inhibition of plateau”, which is a measure of the ability of the compound to decrease the total amount of aggregation, refers to the reduction of the final turbidity in the presence of the test compound expressed as a percent of the control without the test compound.

Row | SMILES | Fold Increase in Lag Time [1] [fold] | further results
1 | CC(=O)N[C@H]1[C@H]([C@H](O)[C@H](O)CO)OC(O)(C(=O)N[C@@H](Cc2c[nH]cn2)C(=O)N[C@@H](CC(=O)O)C(=O)N[C@@H](CO)C(=O)NCC(=O)N[C@@H](Cc2ccc(O)cc2)C(=O)N[C@@H](CCC(=O)O)C(=O)N[C@H](C(=O)N[C@@H](Cc2c[nH]cn2)C(=O)N[C@@H](Cc2c[nH]cn2)C(=O)N[C@@H](CCC(N)=O)C(=O)N[C@@H](CCCCN)C(=O)N[C@@H](CC(C)C)C(=O)N[C@H](C(=O)N[C@@H](Cc2ccccc2)C(=O)N[C@@H](Cc2ccccc2)C(=O)O)C(C)C)C(C)C)C[C@@H]1O (stereo partly drawn) [PPI-266] (Ac-[X2]HDSGYEVHHQKLVFF-OH) | 1.3 | 
2 | CC(C)C[C@H](NC(=O)[C@H](CCCCN)NC(=O)[C@H](CCC(N)=O)NC(=O)[C@H](Cc1c[nH]cn1)NC(=O)[C@H](Cc1c[nH]cn1)NC(=O)[C@@H](NC(=O)[C@H](CCC(=O)O)NC(=O)[C@H](Cc1ccc(O)cc1)NC(=O)CNC(=O)[C@H](CO)NC(=O)[C@H](CC(=O)O)NC(=O)[C@H](Cc1c[nH]cn1)NC(=O)CCCC[C@@H]1SC[C@@H]2NC(=N)N[C@@H]21)C(C)C)C(=O)N[C@H](C(=O)N[C@@H](Cc1ccccc1)C(=O)N[C@@H](Cc1ccccc1)C(=O)O)C(C)C [PPI-267, iminobiotinyl-Aβ6-20] (X3-HDSGYEVHHQKLVFF-OH) | 1.6 | 
3 | CC(C)C[C@H](NC(=O)[C@H](CCCCN)NC(=O)CC[C@@H](C)[C@H]1CC[C@H]2[C@@H]3[C@H](O)C[C@@H]4C[C@H](O)CC[C@]4(C)[C@H]3C[C@H](O)[C@]12C)C(=O)N[C@H](C(=O)N[C@@H](Cc1ccccc1)C(=O)N[C@@H](Cc1ccccc1)C(=O)N[C@@H](C)C(=O)N[C@@H](CCC(=O)O)C(=O)N[C@@H](CC(=O)O)C(=O)N[C@H](C(=O)NCC(=O)N[C@@H](CO)C(=O)N[C@@H](CC(N)=O)C(=O)N[C@@H](CCCCN)C(=O)NCC(=O)N[C@@H](C)C(=O)O)C(C)C)C(C)C [PPI-274] (Cholyl-KLVFFAEDVGSNKGA-OH) | >4.5 | 
4 | CC(=O)N[C@H]1[C@H]([C@H](O)[C@H](O)CO)OC(O)(C(=O)N[C@@H](CCCCN)C(=O)N[C@@H](CC(C)C)C(=O)N[C@H](C(=O)N[C@@H](Cc2ccccc2)C(=O)N[C@@H](Cc2ccccc2)C(=O)N[C@@H](C)C(=O)N[C@@H](CCC(=O)O)C(=O)N[C@@H](CC(=O)O)C(=O)N[C@H](C(=O)NCC(=O)N[C@@H](CO)C(=O)N[C@@H](CC(N)=O)C(=O)N[C@@H](CCCCN)C(=O)NCC(=O)N[C@@H](C)C(=O)O)C(C)C)C(C)C)C[C@@H]1O (stereo partly drawn) [PPI-276] (Ac-[X2]KLVFFAEDVGSNKGA-OH) | ~1 | 
5 | CC(C)C[C@H](NC(=O)[C@H](CCCCN)NC(=O)CCCC[C@@H]1SC[C@@H]2NC(=N)N[C@@H]21)C(=O)N[C@H](C(=O)N[C@@H](Cc1ccccc1)C(=O)N[C@@H](Cc1ccccc1)C(=O)N[C@@H](C)C(=O)N[C@@H](CCC(=O)O)C(=O)N[C@@H](CC(=O)O)C(=O)N[C@H](C(=O)NCC(=O)N[C@@H](CO)C(=O)N[C@@H](CC(N)=O)C(=O)N[C@@H](CCCCN)C(=O)NCC(=O)N[C@@H](C)C(=O)O)C(C)C)C(C)C [PPI-277] (X3-KLVFFAEDVGSNKGA-OH) | 1.2 | 
6 | CC[C@H](C)[C@H](NC(=O)[C@H](C)NC(=O)CNC(=O)[C@H](CCCCN)NC(=O)[C@H](CC(N)=O)NC(=O)[C@H](CO)NC(=O)CNC(=O)[C@@H](NC(=O)[C@H](CC(=O)O)NC(=O)[C@H](CCC(=O)O)NC(=O)[C@H](C)NC(=O)CC[C@@H](C)[C@H]1CC[C@H]2[C@@H]3[C@H](O)C[C@@H]4C[C@H](O)CC[C@]4(C)[C@H]3C[C@H](O)[C@]12C)C(C)C)C(=O)N[C@H](C(=O)NCC(=O)N[C@@H](CC(C)C)C(=O)N[C@@H](CCSC)C(=O)O)[C@@H](C)CC [PPI-279] (Cholyl-AEDVGSNKGAIIGLM-OH) | 1.6 | 
7 | CC[C@H](C)[C@H](NC(=O)[C@H](C)NC(=O)CNC(=O)[C@H](CCCCN)NC(=O)[C@H](CC(N)=O)NC(=O)[C@H](CO)NC(=O)CNC(=O)[C@@H](NC(=O)[C@H](CC(=O)O)NC(=O)[C@H](CCC(=O)O)NC(=O)[C@H](C)NC(=O)C1(O)C[C@H](O)[C@@H](NC(C)=O)[C@H]([C@H](O)[C@H](O)CO)O1)C(C)C)C(=O)N[C@H](C(=O)NCC(=O)N[C@@H](CC(C)C)C(=O)N[C@@H](CCSC)C(=O)O)[C@@H](C)CC (stereo partly drawn) [PPI-281] (Ac-[X2]AEDVGSNKGAIIGLM-OH) | ~1 | 
8 | CC[C@H](C)[C@H](NC(=O)[C@H](C)NC(=O)CNC(=O)[C@H](CCCCN)NC(=O)[C@H](CC(N)=O)NC(=O)[C@H](CO)NC(=O)CNC(=O)[C@@H](NC(=O)[C@H](CC(=O)O)NC(=O)[C@H](CCC(=O)O)NC(=O)[C@H](C)NC(=O)CCCC[C@@H]1SC[C@@H]2NC(=N)N[C@@H]21)C(C)C)C(=O)N[C@H](C(=O)NCC(=O)N[C@@H](CC(C)C)C(=O)N[C@@H](CCSC)C(=O)O)[C@@H](C)CC [PPI-282] (X3-AEDVGSNKGAIIGLM-OH) | ~1 | 
9 | CC[C@H](C)[C@H](NC(=O)[C@H](C)NC(=O)CNC(=O)[C@H](CCCCN)NC(=O)[C@H](CC(N)=O)NC(=O)[C@H](CO)NC(=O)CC[C@@H](C)[C@H]1CC[C@H]2[C@@H]3[C@H](O)C[C@@H]4C[C@H](O)CC[C@]4(C)[C@H]3C[C@H](O)[C@]12C)C(=O)N[C@H](C(=O)NCC(=O)N[C@@H](CC(C)C)C(=O)N[C@@H](CCSC)C(=O)N[C@H](C(=O)NCC(=O)NCC(=O)N[C@H](C(=O)N[C@H](C(=O)O)C(C)C)C(C)C)C(C)C)[C@@H](C)CC [PPI-284] (Cholyl-SNKGAIIGLMVGGVV-OH) | >4.5 | 
10 | CC[C@H](C)[C@H](NC(=O)[C@H](C)NC(=O)CNC(=O)[C@H](CCCCN)NC(=O)[C@H](CC(N)=O)NC(=O)[C@H](CO)NC(=O)C1(O)C[C@H](O)[C@@H](NC(C)=O)[C@H]([C@H](O)[C@H](O)CO)O1)C(=O)N[C@H](C(=O)NCC(=O)N[C@@H](CC(C)C)C(=O)N[C@@H](CCSC)C(=O)N[C@H](C(=O)NCC(=O)NCC(=O)N[C@H](C(=O)N[C@H](C(=O)O)C(C)C)C(C)C)C(C)C)[C@@H](C)CC (stereo partly drawn) [PPI-286] (Ac-[X2]SNKGAIIGLMVGGVV-OH) | 1.3 | 
11 | CC[C@H](C)[C@H](NC(=O)[C@H](C)NC(=O)CNC(=O)[C@H](CCCCN)NC(=O)[C@H](CC(N)=O)NC(=O)[C@H](CO)NC(=O)CCCC[C@@H]1SC[C@@H]2NC(=N)N[C@@H]21)C(=O)N[C@H](C(=O)NCC(=O)N[C@@H](CC(C)C)C(=O)N[C@@H](CCSC)C(=O)N[C@H](C(=O)NCC(=O)NCC(=O)N[C@H](C(=O)N[C@H](C(=O)O)C(C)C)C(C)C)C(C)C)[C@@H](C)CC [PPI-287] (X3-SNKGAIIGLMVGGVV-OH) | 2.3 | 
12 | C[C@H](CCC(=O)O)[C@H]1CC[C@H]2[C@@H]3[C@H](O)C[C@@H]4C[C@H](O)CC[C@]4(C)[C@H]3C[C@H](O)[C@]12C [PPI-293, Cholic acid, reference compound] |  | inhibitory activity on Aβ aggregation: had no effect on Aβ aggregation; inhibition at 100 mol % (Table V): 0%
13 | CC(C)C[C@H](NC(=O)[C@H](CCCCN)NC(=O)[C@H](CCC(N)=O)NC(=O)[C@H](Cc1c[nH]cn1)NC(=O)[C@H](Cc1c[nH]cn1)NC(=O)[C@@H](NC(=O)[C@H](CCC(=O)O)NC(=O)[C@H](Cc1ccc(O)cc1)NC(=O)CNC(=O)[C@H](CO)NC(=O)[C@H](CC(=O)O)NC(=O)[C@H](Cc1c[nH]cn1)NC(=O)CC[C@@H](C)[C@H]1CC[C@H]2[C@@H]3[C@H](O)C[C@@H]4C[C@H](O)CC[C@]4(C)[C@H]3C[C@H](O)[C@]12C)C(C)C)C(=O)N[C@H](C(=O)N[C@@H](Cc1ccccc1)C(=O)N[C@@H](Cc1ccccc1)C(N)=O)C(C)C [PPI-296] (Cholyl-HDSGYEVHHQKLVFF-NH2) |  | Fold Increase in Lag Time (Table III, 33 mole %): 1.8 fold
14 | CC(C)C[C@H](NC(=O)[C@H](CCCCN)NC(=O)[C@H](CCC(N)=O)NC(=O)[C@H](Cc1c[nH]cn1)NC(=O)[C@H](Cc1c[nH]cn1)NC(=O)[C@@H](NC(=O)[C@H](CCC(=O)O)NC(=O)[C@H](Cc1ccc(O)cc1)NC(=O)CNC(=O)[C@H](CO)NC(=O)[C@H](CC(=O)O)NC(=O)[C@H](Cc1c[nH]cn1)NC(=O)CC[C@@H](C)[C@H]1CC[C@H]2[C@@H]3[C@H](O)C[C@@H]4C[C@H](O)CC[C@]4(C)[C@H]3C[C@H](O)[C@]12C)C(C)C)C(N)=O [PPI-325] (Cholyl-HDSGYEVHHQKL-NH2) |  | Fold Increase in Lag Time (Table III, 33 mole %): 1.8 fold
15 | CC(C)[C@H](NC(=O)[C@H](CCC(=O)O)NC(=O)[C@H](Cc1ccc(O)cc1)NC(=O)CNC(=O)[C@H](CO)NC(=O)[C@H](CC(=O)O)NC(=O)[C@H](Cc1c[nH]cn1)NC(=O)CC[C@@H](C)[C@H]1CC[C@H]2[C@@H]3[C@H](O)C[C@@H]4C[C@H](O)CC[C@]4(C)[C@H]3C[C@H](O)[C@]12C)C(=O)N[C@@H](Cc1c[nH]cn1)C(=O)N[C@@H](Cc1c[nH]cn1)C(N)=O [PPI-331] (Cholyl-HDSGYEVHH-NH2) |  | Fold Increase in Lag Time (Table III, 33 mole %): 1.0 fold
16 | C[C@H](CCC(=O)N[C@@H](Cc1c[nH]cn1)C(=O)N[C@@H](CC(=O)O)C(=O)N[C@@H](CO)C(=O)NCC(=O)N[C@@H](Cc1ccc(O)cc1)C(N)=O)[C@H]1CC[C@H]2[C@@H]3[C@H](O)C[C@@H]4C[C@H](O)CC[C@]4(C)[C@H]3C[C@H](O)[C@]12C [PPI-339] (Cholyl-HDSGY-NH2) |  | Fold Increase in Lag Time (Table III, 33 mole %): 1.1 fold; ΔLag (ratio of lag time with test compound to lag time of control) (Table V, 100 mole % inhibitor relative to Aβ1-40): 1.1; inhibition at 100 mol % (Table V): -18%
17 | CC(C)C[C@H](NC(=O)[C@H](CCCCN)NC(=O)[C@H](CCC(N)=O)NC(=O)[C@H](Cc1c[nH]cn1)NC(=O)[C@H](Cc1c[nH]cn1)NC(=O)[C@@H](NC(=O)[C@H](CCC(=O)O)NC(=O)[C@H](Cc1ccc(O)cc1)NC(=O)CNC(=O)[C@H](CO)NC(=O)[C@H](CC(=O)O)NC(=O)CC[C@@H](C)[C@H]1CC[C@H]2[C@@H]3[C@H](O)C[C@@H]4C[C@H](O)CC[C@]4(C)[C@H]3C[C@H](O)[C@]12C)C(C)C)C(=O)N[C@H](C(=O)N[C@@H](Cc1ccccc1)C(=O)N[C@@H](Cc1ccccc1)C(=O)O)C(C)C [PPI-341, cholyl-Aβ7-20] (Cholyl-DSGYEVHHQKLVFF-OH) |  | Fold Increase in Lag Time (Table III, 33 mole %): 2 fold; Fold Increase in Lag Time (Table III, 100 mole %): >4.5 fold
